Data on 4 compounds can be found in patent US11878001B2, “Use of mavoglurant in the reduction of cocaine use or in preventing relapse into cocaine use” (NOVARTIS AG, priority 2017, dated 2024).

Data set [1] relates to Sprague-Dawley rats. Nature of the data set: Cue-induced reinstatement of the cocaine self-administration response after extinction, Phase II. Type of data set: in vivo. Conditions: 10 mg/kg PO, 1 hour prior to test; after 9-day extinction; N=14-15 per group. From the text:
(§1) Evaluation of the Effects of Mavoglurant on Cocaine Dependence and Cocaine Reinstatement Using the Intravenous Self-Administration Model in Sprague-Dawley Rats
(§2) Adult male Sprague-Dawley rats (300-325 g at arrival) from Harlan Laboratory (Indiana, USA) were used. Upon arrival, the rats were assigned a unique identification numbers (tail marks). Animals were single housed in suspended polycarbonate rat cages with filter tops, and were acclimated for up to 7 days. All rats were examined, handled, and weighed prior to initiation of the study to assure adequate health and suitability. During the course of the study, 12 h/12 h light/dark cycles were maintained. The room temperature was 21-23° C. with a relative humidity maintained at 30-70%. Water was provided ad libitum for the duration of the study.
(§3) Mavoglurant (free form) was formulated in 0.5% methylcellulose (MC) at 1, 3 and 10 mg/kg and administered orally at a dose volume of 1 ml/kg 60 minutes prior to test.
Intravenous drug self-administration took place in sound attenuated operant chambers equipped with an exhaust fan (Med Associates, VT). Each chamber contained two levers situated on one wall of the chamber. […]
During the reinstatement session, which occurred one day after the last extinction session, rats were presented the cues (flash+tone) at the beginning of the session and their lever-press responses recorded. […]

The subject of data set [2] is Sprague-Dawley rats. Briefly: Acute effects on intravenous cocaine self-administration (FR5) in rats, Phase I. Type of data set: in vivo. To be noted: cocaine 0.3 mg/kg/infusion.
Excerpt: as §1, §2
Cocaine Hydrochloride (Sigma-Aldrich, USA) (1.05 mg/ml which is equivalent to 0.3 mg/kg/infusion under 350 g body weight and 0.1 ml/infusion rate) was dissolved in saline (0.9% NaCl). The formulation was a clear solution.
as §3
Intravenous drug self-administration took place in sound attenuated operant chambers equipped with an exhaust fan (Med Associates, VT). Each chamber contained two levers situated on one wall of the chamber. Only one of the two levers was active (located on the left side). Pressing the active lever caused delivery of reinforcer (food or cocaine). […] A stimulus light was located above each lever, but only the one above the active lever was on during the timeout period (defined below). A house light (providing illumination) was located at the top of opposite wall. For food training (see details below), a pellet receptacle was situated between the two levers for delivery of food pellets (Bio-Serv's Dustless Precision Pellets #F0165, 45 mg). […]

For data set [3] the following is noted: in vivo; cited from earlier work.
The target of data set [4] is T1, cytochrome P450 1A2 (Homo sapiens, UniProt P05177).
T1 sequence (P05177 1-516): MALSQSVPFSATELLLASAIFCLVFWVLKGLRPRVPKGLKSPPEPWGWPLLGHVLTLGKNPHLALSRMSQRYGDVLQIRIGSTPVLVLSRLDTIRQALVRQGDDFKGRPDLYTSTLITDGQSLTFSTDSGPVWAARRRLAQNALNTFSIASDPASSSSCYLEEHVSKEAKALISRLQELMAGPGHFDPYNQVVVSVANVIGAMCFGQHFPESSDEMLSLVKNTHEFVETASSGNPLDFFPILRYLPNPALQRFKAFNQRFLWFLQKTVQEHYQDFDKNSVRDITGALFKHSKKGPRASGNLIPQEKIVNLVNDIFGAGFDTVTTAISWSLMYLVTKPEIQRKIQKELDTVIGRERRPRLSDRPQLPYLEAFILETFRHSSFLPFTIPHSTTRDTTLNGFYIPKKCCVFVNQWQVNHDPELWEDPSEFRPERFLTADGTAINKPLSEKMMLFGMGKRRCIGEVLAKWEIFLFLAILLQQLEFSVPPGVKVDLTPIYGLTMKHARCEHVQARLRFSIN
To be noted: cited from earlier work.

The test system of data set [5] is mice. To be noted: cited from earlier work.
The test system of data set [6] is rats. To be noted: cited from earlier work.
The test system of data set [7] is monoamine oxidase. To be noted: cited from earlier work.
In data set [8] the target is norepinephrine transporter (Homo sapiens, UniProt P23975). To be noted: cited from earlier work.
Chain of norepinephrine transporter (P23975 whole entry, species assumed): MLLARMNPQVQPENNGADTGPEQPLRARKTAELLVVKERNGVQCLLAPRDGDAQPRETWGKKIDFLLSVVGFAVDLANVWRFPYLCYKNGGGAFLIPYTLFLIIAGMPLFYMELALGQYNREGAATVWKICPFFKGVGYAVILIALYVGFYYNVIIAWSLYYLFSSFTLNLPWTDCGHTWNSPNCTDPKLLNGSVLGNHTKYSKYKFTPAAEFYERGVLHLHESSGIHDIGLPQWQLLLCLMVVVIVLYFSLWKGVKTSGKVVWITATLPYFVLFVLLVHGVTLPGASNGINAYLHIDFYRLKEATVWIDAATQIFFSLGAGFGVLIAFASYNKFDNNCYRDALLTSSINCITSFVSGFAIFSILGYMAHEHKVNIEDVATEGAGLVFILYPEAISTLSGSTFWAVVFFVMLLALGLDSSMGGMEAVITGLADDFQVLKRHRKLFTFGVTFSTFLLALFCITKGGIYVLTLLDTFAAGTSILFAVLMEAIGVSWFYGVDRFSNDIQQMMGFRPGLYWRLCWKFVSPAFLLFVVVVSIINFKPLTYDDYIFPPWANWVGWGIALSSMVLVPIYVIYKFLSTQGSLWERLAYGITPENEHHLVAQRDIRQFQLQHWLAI
For data set [9], the system named is NMDA receptors. Conditions: cited from earlier work.

Entries after “also recorded” stand apart in the source; their conditions may differ.

On to `COC(=O)N1CC[C@@H]2[C@H]1CCC[C@@]2(O)C#Cc1cccc(C)c1` [mavoglurant, (−)-(3aR,4S,7aR)-4-Hydroxy-4-m-tolylethynyl-octahydro-indole-1-carboxylic acid methyl ester], for which the “cue-induced reinstatement of the self-administration response” value in data set [1] was “cue-induced reinstatement was suppressed; also recorded: completely prevented cue-induced reinstatement”. Besides, the “responding on the active lever (cocaine self-administration)” value in [2] (3 mg/kg orally, 60 minutes prior to test, post hoc p<0.10, N=12) is given as “tended to reduce responding on the active lever”; in data set [2] (10 mg/kg PO, 1 hour prior to test, post hoc p<0.001, N=12) it was “significantly reduced responding”; in data set [2] (10 mg/kg PO, 1 hour prior to test, post hoc p<0.001, N=12, listed as Mavoglurant) it was “significantly reduced cocaine self-administration”.

`CNCCCN1c2ccccc2CCc2ccccc21` [desipramine]: in [3], the cocaine craving result is reported as “reduce”, the cocaine use result is given as “reduce” and the “symptoms of cocaine withdrawal” value is “alleviate symptoms of cocaine withdrawal”.

On to `Cc1nc(C#Cc2cccnc2)cs1` [MTEP, 3-[2-(2-methylthiazol-4-yl)ethynyl]pyridine], for which the “inhibition of cytochrome P450 1A2” value in [4] is listed as “potent inhibition”. The cocaine self-administration result in data set [5] and in data set [6] was “decreased cocaine self-administration” throughout.

For `Cc1cccc(C#Cc2ccccc2)n1` [MPEP, 2-methyl-6-(2-phenylethynyl)pyridine], in data set [7], the “off-target effects on monoamine oxidase” value is “off-target effects”. For the same compound, the cocaine self-administration entry in data set [5] and in data set [6] was “decreased cocaine self-administration” each time. Also, the “off-target effects on the norepinephrine transporter” value in [8] is listed as “off-target effects”. Besides, in data set [9], the “off-target effects on NMDA receptors” value is given as “off-target effects”.
